Reference: PubChem BioAssay AID179 (DTP/NCI, 2004)
“And” between values parts separate entries of the source, which are not always exact repeats. Equal entries are not always repeated. The source made the active and inactive calls.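 The calls were made as follows: active = compounds giving half or more protection of infected cells from virus-caused growth loss, again on retest; inactive = the rest.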

System: CEM cells HIV-1 protection, formazan growth assay
Experiment: NCI AIDS Antiviral Assay
Details: for IC50: measured here: growth of uninfected CEM cells
Method in brief: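 Human CEM cells, uninfected and HIV-1-infected, received five drug concentrations, and growth was read by soluble formazan assay. Compounds giving at least 50% protection were retested; reproducible 100% protection defined confirmed active.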

SMILES	EC50	IC50	outcome
O=C(CCCC[n+]1ccccc1)Sc1ccccc1C(=O)Nc1ccc(S(=O)(=O)Nc2ncccn2)cc1	17 µM	56.2 µM	–
COC1(CC[C@@H](C)COC2OC(CO)C(O)C(O)C2O)O[C@H]2C[C@H]3[C@@H]4CC=C5C[C@@H](OC6OC(CO)C(O)C(OC7OC(CO)C(O)C(O)C7O)C6OC6OC(C)C(O)C(O)C6O)CC[C@]5(C)[C@H]4CC[C@]3(C)[C@H]2[C@@H]1C (some centres undefined)	> 200 µM	3.31 µM	–
CC1=C(C(=O)O)N2C(=O)[C@@H](NC(=O)C(c3ccc(O)cc3)N3CSC(=S)N(C(C)C)C3)C2SC1 (some centres undefined)	> 479 µM	269 µM	–
Cc1ccc(S(=O)(=O)/C(C#N)=C/NS(=S)c2ccncc2)cc1 (centres undefined)	–	–	inactive
Cn1cc(NC(=O)c2nc(NC(=O)c3nc(NC(=O)c4ccc(C(=O)Nc5cn(C)c(C(=O)Nc6cn(C)c(C(=O)Nc7cn(C)c(C(=O)NCCC(=N)N)n7)n6)n5)cc4)cn3C)cn2C)nc1C(=O)NCCC(=N)N	> 12.9 µM	2.34 µM	–
COc1ccc(CCc2ncc[nH]2)cc1OC	> 617 µM	> 617 µM	–
O=[N+]([O-])/C(C(Cl)=C(Cl)Cl)=C(/Nc1ccccc1)SCc1ccccc1	> 200 µM	38 µM	–
CC(=O)OCC12CCC(C)=CC1OC1C(O)C(OC(C)=O)C2(C)C12CO2 (centres undefined)	> 3.39 µM	0.00331 µM	–
COCC(N=CN1CCCc2ccccc2[C@@H]1CCCCl)C(C)(C)C (some centres undefined)	> 200 µM	22.4 µM	–
CSC(=S)N(C)c1nc(=[N+](C)C)ss1	–	–	inactive
Cc1ccc(-c2n[nH]c(=O)[nH]2)cc1[N+](=O)[O-]	> 200 µM	> 200 µM	–
CC(=O)OC1CCC2(C)C(=CCC3C2CCC2(C)C3CC3N(c4ccccc4)C32C(C)=O)C1 (centres undefined)	6.46 µM	20 µM	–
CO/N=C(/C(=O)Nc1c[n+](CC(=O)[O-])cs1)c1csc(N)n1	> 145 µM	> 145 µM	–
CC/C=C\C/C=C\C/C=C\CCCCCCCC(=O)NC(CCC(N)=O)C(=O)O (centres undefined)	> 200 µM	43.7 µM	–
COc1cc(NS(=O)(=O)c2ccc(NC(=O)c3ccccc3SC(=O)CCCC[n+]3ccccc3)cc2)nc(OC)n1	26.9 µM	60.3 µM	–
OC1C2CCCC1C1(CCCCC1)C1CCCCC21O (centres undefined)	–	–	inactive
O=S(=O)(Nc1nnc2ccc3ccccc3n12)c1ccc(F)cc1S	> 200 µM	110 µM	–
CC(=O)C1CCC2C1(C)CC1OC13C21C=CC2(CC(O)CCC23C)C2C(=O)OC(=O)C21 (centres undefined)	> 302 µM	> 302 µM	–
O=C1C[C@@H]2[C@@H](c3ccccc3)[C@@H]3C(=O)c4ccccc4NC(=O)[C@H]3[C@]2(O)c2ccccc2N1	26.9 µM	30.9 µM	–
COc1cccc(C2c3cc4c(cc3OC(N3CCCCC3)C2C)OCO4)c1OC (centres undefined)	> 200 µM	1.7 µM	–
O=C1c2ccccc2C2C1C(c1ccccc1)C1(Cc3ccccc3C1=O)C2c1ccccc1 (centres undefined)	> 200 µM	38.9 µM	–

SMILES	EC50	IC50	outcome
CCOC(=O)C[P+](c1ccc(OC)cc1)(c1ccc(OC)cc1)c1ccc(OC)cc1	> 200 µM	33.1 µM	–
CC1OC(OC2CC(O)(C(=O)CO)Cc3c(O)c4c(c(O)c32)C(=O)c2ccccc2C4=O)CC(N)C1O (centres undefined)	> 0.2 µM	0.0631 µM	–
COC(=O)c1ccc2c(c1)C(O)NC(=O)O2 (centres undefined)	> 200 µM	34.7 µM	–
CSc1nc(SC)c2[nH]cnc2n1	> 200 µM	145 µM	–
COc1cccc2c1N(COC(C)=O)C(=O)C1C=CC(C)(C)OC21 (centres undefined)	> 100 µM	56.2 µM	–
Nc1nc(N)n2c(N)nnc2n1	> 200 µM	> 200 µM	–
COC[C@@H](N=Cc1ccc([N+](=O)[O-])cc1)C(C)C	> 200 µM	67.6 µM	–
CN1CCCOC(c2ccc([N+](=O)[O-])cc2)O1 (centres undefined)	> 200 µM	> 200 µM	–
O=C(NNc1ccnc2cc(Cl)ccc12)/C(=C/c1ccc2c(c1)OCO2)NC(=O)c1ccccc1	> 100 µM	8.51 µM	–
CC1C(C#N)(C#N)C(C#N)=C(N)C1(Cl)[N+](=O)[O-] (centres undefined)	> 200 µM	3.72 µM	–
CCCCOCC(=O)C1CC[C@@H]2[C@H](CC[C@]3(C)[C@@H](O)CC[C@@H]23)[C@H]1C(=O)O (some centres undefined)	> 50.1 µM	> 50.1 µM	–
On1c(-c2ccccc2)c(-c2ccccc2N2CCCC2)c2ccccc21	–	–	inactive
CC(=O)NNC(=S)N/C=C\c1nc2ccccc2[nH]c1=O	> 200 µM	> 200 µM	–
CC(C)=NNc1cnnc2ccc([N+](=O)[O-])cc12	> 200 µM	70.8 µM	–
CC1(CCCCO)C=CC(S(=O)(=O)c2ccccc2)CC1 (centres undefined)	–	–	inactive
CC1CCn2c(=S)[nH]c3cccc(c32)N1 (centres undefined)	42.7 µM	182 µM	–
Cc1nc2c(o1)C(=Nc1ccc(I)cc1)c1ccccc1C2=Nc1ccc(I)cc1	–	–	inactive
C1CCC2(CC1)CCN(CCCN1CCOCC1)CC2	–	–	inactive
COc1ccc(Nc2nc3c([nH]2)c(=O)n(C)c(=O)n3C)cc1	> 200 µM	> 200 µM	–
CCCCCCCCOc1ccc(C(=O)c2ccccc2)c(O)c1	> 200 µM	95.5 µM	–
COc1cc2c(cc1OC)C(Cl)C(c1ccc(Cl)cc1)=C2Cl (centres undefined)	–	–	inactive

SMILES	EC50	IC50	outcome
CCOC(=O)c1c(Cl)nc2ccccc2c1N=[N+]=[N-]	> 200 µM	31.6 µM	–
CC1(C)C(=O)/C=C\C(=O)C(C)(C)C2=CC=C(O2)C(C)(C)C(=O)C(Br)C(Br)C(=O)C(C)(C)C2=CC=C1O2 (centres undefined)	–	–	inactive
C=CCN(c1cc(OC)c2[nH]c(C(=O)O)c(C)c2c1[N+](=O)[O-])S(C)(=O)=O	> 200 µM	> 200 µM	–
Oc1ccc2occ3c2c1CCC3	–	–	inactive
CC(C)(C)C(=O)OCOP(=O)(O)OCC1CCC(N2C=CC(N)NC2=O)O1 (centres undefined)	0.0468 µM	16.2 µM	–
O=C(CCc1cc(O)cc(O)c1)NCCc1cc(OCc2ccccc2)cc(OCc2ccccc2)c1	–	–	inactive
O=[N+]([O-])c1cc(I)cc(/C=N/NS(=O)(=O)c2ccc(F)cc2)c1O	> 389 µM	67.6 µM	–
CC(=O)C(CN1C(=O)c2ccccc2C1=O)C(C)=O	> 38.9 µM	> 38.9 µM	–
Cc1ccc(S(=O)(=O)c2ccccn2)cc1	132 µM	380 µM	–
O=C(O)CCSCCCCCCCCCCSCCC(=O)O	> 74.1 µM	> 74.1 µM	–
C=C1C(OC(=O)C(O)C(c2ccccc2)N(C)C)C[C@H](OC(C)=O)[C@]2(C)C1C[C@@H]1CC(OC(C)=O)C(C)=C([C@@H](OC(C)=O)C2OC(C)=O)C1(C)C (some centres undefined)	–	–	inactive
C=C1C(=O)[C@@]23C(O)C[C@@H]4C(C)(C)CCCC4(COC(C)=O)[C@@H]2[C@@H](O)C[C@@H]1[C@H]3O (some centres undefined)	> 631 µM	1.95 µM and 1.02 µM	–
CC(C)N1[C@@H]2CCCC[C@H]2N(C(C)C)[P+]1=O	> 200 µM	> 200 µM	–
COc1ccc(SCc2cc(OC)ccc2OC)cc1	> 200 µM	3.98 µM	–
O=C(O)CN1C(=O)c2ccc(NC(=O)C(=O)O)cc2S1(=O)=O	> 200 µM	> 200 µM	–
C1C2CC3C1C1C[S+]3CC21 (centres undefined)	> 380 µM	> 380 µM	–
O=c1onc(Nc2ccccc2)n1-c1ccccc1	> 200 µM	129 µM	–
CCOC(=O)C1=[N+]([O-])OC2=C(O)CCCC21 (centres undefined)	–	–	inactive
CC(=O)N(C)C(c1ccccc1)(c1ccccc1)c1ccccc1	> 200 µM	35.5 µM	–
C/C=C(\N=C=S)C(=O)OC1C(COC(C)=O)OC([C@]2(O)CC(=O)C(=N)C(C(=O)O)=C2O)C(O)C1OC1CC(OC)C(O)([C@@H](C)OC(=O)[C@@H](C)CC)C(C)O1 (some centres undefined)	–	–	inactive
CC1(C)COC(C23C4C5C2C2C3C4C52I)=N1 (centres undefined)	> 79.4 µM	> 79.4 µM	–

SMILES	EC50	IC50	outcome
O=C(NCCC1([N+](=O)[O-])CCN(C(=O)c2ccccc2)CC1)c1ccccc1	–	–	inactive
N#C/C=C/c1cccc(C#N)c1	> 46.8 µM	> 46.8 µM	–
c1ccc2c(c1)CC1COc3ccccc3C1O2 (centres undefined)	> 200 µM	70.8 µM	–
CC(=O)NNC(=S)/N=C\c1c(O)[nH]c(=O)[nH]c1=O	> 200 µM	> 200 µM	–
CCC1NC(N=Nc2ccc([N+](=O)[O-])cc2)(P(=O)(OC(C)C)OC(C)C)OC1=O (centres undefined)	> 219 µM	> 219 µM	–
C/C(N=NS(=O)(=O)c1c(C)cc(C)cc1C)=C1\C=CC=CN1O	–	–	inactive
CCOC(=O)/C=C(\CCOC1CCCCO1)[Si](C)(C)c1ccccc1 (centres undefined)	> 20 µM	> 20 µM	–
COc1ccccc1NC(=O)C1=C(C)NC(C)=C(C(=O)Nc2ccccc2OC)C1c1ccc(C(C)C)cc1	–	–	inactive
Cc1ccccc1C1OC(=O)c2ccccc21 (centres undefined)	> 158 µM	97.7 µM	–
O=C1CN(c2cccc(C(F)(F)F)c2)C(=O)CN1NCNN1CC(=O)N(c2cccc(C(F)(F)F)c2)CC1=O	> 200 µM	> 200 µM	–
CN1C(=O)[C@](O)(Cc2cccc(O)c2)N(C)C(=O)[C@@H]1Cc1c[nH]c2cccc([N+](=O)[O-])c12	–	–	inactive
O=C(c1ccccc1)C(O)(CC(c1ccccc1)[P+](c1ccccc1)(c1ccccc1)c1ccccc1)c1ccccc1 (centres undefined)	> 200 µM	1.17 µM	–
C1=NCCNc2nc3ccccc3cc2C=NCCNc2nc3ccccc3cc21	> 200 µM	> 200 µM	–
Cc1ccc(C(=O)OCC(C)C)cc1N=NN(C)C	> 27.5 µM	> 27.5 µM	–
C=Cc1ccccc1C1(O)C=CC(OC)(OC)C=C1	> 200 µM	7.94 µM	–
O=C(N/N=C/c1ccccn1)c1ccccc1[O-].O=C(N/N=C/c1ccccn1)c1ccccc1[O-].[Co+2]	> 200 µM	33.9 µM	–
c1ccc(CNC2C(c3ccccc3)=NN(c3ccccc3)C2c2ccccc2)cc1 (centres undefined)	> 200 µM	> 200 µM	–
Cc1ccccc1SSc1ccccc1C	–	–	inactive
O=c1[nH]c2ccccc2nc1/C=C/NC(=S)Nc1ccccc1	> 200 µM	> 200 µM	–
CC[C@]1(Cc2ccc(OC)c(OC)c2)C=[N+]([O-])O[C@H](OC2CCCC2(c2ccccc2)c2ccccc2)[C@@H]1OC(=O)C(C)(C)C (some centres undefined)	> 200 µM	1.17 µM	–
CC(=O)OCC1OC(n2cc(C(F)(F)F)c(=O)[nH]c2=O)CC1OC(C)=O (centres undefined)	> 200 µM	2.45 µM	–
